Assay results taken from ChEMBL document CHEMBL5154908, “Design, Synthesis, and Biological Characterization of Inhaled p38α/β MAPK Inhibitors for the Treatment of Lung Inflammatory Diseases” (J Med Chem, 2022).
pIC50: −log10 of the molar value.

Tests used:
[1] = target: T1, Mitogen-activated protein kinase 14 (Homo sapiens, UniProt Q16539); experiment: Inhibition of human recombinant full length GST-tagged p38alpha expressed in Escherichia coli preincubated for 2 hrs followed by ATP addition and measured after 1 hr by Alpha screen assay
T1 sequence (Q16539 whole entry): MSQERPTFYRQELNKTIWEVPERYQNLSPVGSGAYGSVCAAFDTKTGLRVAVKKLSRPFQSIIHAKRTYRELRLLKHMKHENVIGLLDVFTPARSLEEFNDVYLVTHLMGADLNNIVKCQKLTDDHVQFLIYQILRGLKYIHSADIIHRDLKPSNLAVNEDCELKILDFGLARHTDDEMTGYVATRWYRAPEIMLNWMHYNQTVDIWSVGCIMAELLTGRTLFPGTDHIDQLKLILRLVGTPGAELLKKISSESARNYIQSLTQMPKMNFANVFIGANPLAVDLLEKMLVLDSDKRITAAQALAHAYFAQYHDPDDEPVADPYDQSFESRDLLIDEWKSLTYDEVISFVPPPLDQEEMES

[2] = Inhibition of LPS-stimulated TNFalpha release in human PBMC cells preincubated for 1 hr followed by LPS stimulation and measured after 18 hrs; format: functional, cell-based
[3] = target: T1, Mitogen-activated protein kinase 14; experiment: Displacement of SKF-86002 from human inactivated p38alpha assessed as dissociation half life incubated for 2 hrs by fluorescence based analysis

Structure (SMILES)	pIC50 [1]	pIC50 [2]	T1/2 [3]
C[C@H]1CCCCN1c1nnc2ccc(O[C@@H]3CC[C@H](NC(=O)Nc4cc(C(C)(C)C)nn4-c4cnnc(OCCN(C)C)c4)c4ccccc43)cn12	9.52	8.92	1.1 h
CC(C)c1nnc2ccc(O[C@@H]3CC[C@H](NC(=O)Nc4cc(C(C)(C)C)nn4-c4cccc(OCCO)c4)c4ccccc43)cn12	9.40	9.00	1.9 h
C[C@H]1CCCCN1c1nnc2ccc(O[C@@H]3CC[C@H](NC(=O)Nc4cc(C(C)(C)C)nn4-c4cnn(CCN5CCOCC5)c4)c4ccccc43)cn12	9.30	8.74	> 16 h
COCCN(C)CCn1cc(-n2nc(C(C)(C)C)cc2NC(=O)N[C@H]2CC[C@@H](Oc3ccc4nnc(N5CCCC[C@@H]5C)n4c3)c3ccccc32)cn1	9.70	9.05	> 16 h
Cc1ccc(-n2nc(C(C)(C)C)cc2NC(=O)N[C@H]2CC[C@@H](Oc3ccc4nnc(N5CCC(O)CC5)n4c3)c3ccccc32)cc1	9.30	8.68	> 16 h
Cc1ccc(-n2nc(C(C)(C)C)cc2NC(=O)N[C@H]2CC[C@@H](Oc3ccc4nnc(C5CCCC5)n4c3)c3ccccc32)cc1	10.00	9.52	> 16 h
C[C@@H]1CCC[C@H](C)N1c1nnc2ccc(O[C@@H]3CC[C@H](NC(=O)Nc4cc(C(C)(C)C)nn4-c4cccc(OCCN(C)C)c4)c4ccccc43)cn12	9.52	9.00	> 16 h
C[C@H]1CCCCC1c1nnc2ccc(O[C@@H]3CC[C@H](NC(=O)Nc4cc(C(C)(C)C)nn4-c4cccc(CN5CCN(C)CC5)c4)c4ccccc43)cn12 (some centres not stated)	9.52	9.00	> 16 h
Cc1ccc(-n2nc(C(C)(C)C)cc2NC(=O)N[C@H]2CC[C@@H](Oc3ccc4nnc(N5CCOCC5)n4c3)c3ccccc32)cc1	8.96	9.05	5.8 h
CC(C)(C)c1cc(NC(=O)N[C@H]2CC[C@@H](Oc3ccc4nnc(N5CCCCC5)n4c3)c3ccccc32)n(-c2cccc(CN3CCCCC3)c2)n1	8.89	8.72	1.2 h
CC(C)(C)c1cc(NC(=O)N[C@H]2CC[C@@H](Oc3ccc4nnc(N5CCCCC5)n4c3)c3ccccc32)n(-c2cccc(CN3CCNCC3)c2)n1	9.10	8.96	5 h
C[C@H]1CCCCN1c1nnc2ccc(O[C@@H]3CC[C@H](NC(=O)Nc4cc(C(C)(C)C)nn4-c4ccn(CCN(C)C)n4)c4ccccc43)cn12	9.70	8.57	1.9 h
CCN(C)CCn1cc(-n2nc(C(C)(C)C)cc2NC(=O)N[C@H]2CC[C@@H](Oc3ccc4nnc(N5CCCC[C@@H]5C)n4c3)c3ccccc32)cn1	9.70	8.60	9 h
C[C@H]1CCCCN1c1nnc2ccc(O[C@@H]3CC[C@H](NC(=O)Nc4cc(C(C)(C)C)nn4-c4cncc(OCCN(C)C)c4)c4ccccc43)cn12	10.52	9.00	5 h
CC(C)(C)c1cc(NC(=O)N[C@H]2CC[C@@H](Oc3ccc4nnc(N5CCCCC5)n4c3)c3ccccc32)n(-c2cccc(CO)c2)n1	9.22	9.70	> 16 h
CN1CCN(Cc2ccc(-n3nc(C(C)(C)C)cc3NC(=O)N[C@H]3CC[C@@H](Oc4ccc5nnc(N6CCCCC6)n5c4)c4ccccc43)cc2)CC1	9.22	8.66	1.4 h
Cc1ccc(-n2nc(C(C)(C)C)cc2NC(=O)N[C@H]2CC[C@@H](Oc3ccc4nnc(C5CCCCC5)n4c3)c3ccccc32)cc1	9.52	9.40	> 16 h
CC(C)(C)c1cc(NC(=O)N[C@H]2CC[C@@H](Oc3ccc4nnc(N5CCC(O)CC5)n4c3)c3ccccc32)n(-c2ccc(CO)cc2)n1	9.40	7.85	> 16 h
C[C@H]1CCCCN1c1nnc2ccc(O[C@@H]3CC[C@H](NC(=O)Nc4cc(C(C)(C)C)nn4-c4cccc(OCCN(C)C)n4)c4ccccc43)cn12	8.70	8.24	2.9 h
